Key:
[1] = metabolic stability in human liver microsomes; assay type: in vitro ADME; conditions: estimated maximum oral bioavailability from human liver microsome incubation; 0.3 μM, 0.5 mg/ml protein, 37° C., 60 min
Protocol: The metabolic stability of test substances was determined by incubations in a suspension with human liver microsomes adjusted to a protein content of 0.5 mg/ml, at a concentration of 0.3 μM. The incubation volume was 3.03 ml, where 2.4 ml of a microsome suspension in phosphate buffer at pH 7.4 (sodium phosphate buffer 100 mM (NaH2PO4×H2O+Na2HPO4×2H2O) were initially charged, which were activated by addition of 0.6 ml of a cofactor mix (consisting of 1.2 mg of NADP, 3 IU of glucose 6-phosphate dehydrogenase, 14.6 mg of glucose 6-phosphate and 4.9 mg of MgCl2 in phosphate buffer, pH 7.4). The assay was started by addition of 30 μL of a test substance stock solution, where the composition of the stock solution was such that the solvent concentrations during the incubation were <0.2% for DMSO and <1% for methanol. The incubations were carried out at an incubation temperature of 37° C. over a period of 60 minutes, during which time the microsomes were kept in a homogeneous suspension by continuous stirring (Tec Control Shaker RS 485 at 300 rpm). At 6 different points in time (2, 8, 16, 30, 45 & 60 min), aliquots of in each case 250 μl were removed and immediately added to the same volume of ice-cold methanol and covered.
The decrease in concentrations over time were used to determine the half-life of the test substance in the microsomal incubation mixture described above, which in turn was used to calculate the “intrinsic clearance”, the maximum liver microsome rate for the metabolic elimination of the test substance. This “intrinsic clearance” for its part can be used together with various physiological parameters to estimate the maximum metabolic clearance in man, where the principle mentioned above is only capable of representing phase I metabolic reactions (typically: oxidoreductive reactions of Zytochrom P450 enzymes or flavin monooxigenase, and also hydrolytic reactions of esterases and amidases). Physiological parameters are: human liver blood flow: 1.3 l/kg/h; specific liver weight (per kg of body weight): 21 g/kg; microsomal protein content: 40 mg/g of liver. Furthermore, assuming that (i) the resorption of the test substance in humans is 100%, and (ii) the estimated metabolic clearance can be calculated as first pass, a maximum oral bioavailability (Fmax) was estimated.
Formulae & brief illustrations: CL intrinsic-apparent [in ml/(min*mg of protein)]: reflects the elimination constant kel (in min-1) of the test substance in the incubation mixture, divided by the microsomal protein content ([…]). CL intrinsic [in l(h*kg)]: maximum capability of the liver (microsomes) for metabolic elimination of the test substance, unless the liver blood flow is the limiting factor (kel*liver weight)/liver proportion (microsomal content) in the incubation. CL blood-well stirred [in l/(h*kg)]: estimated blood clearance (via Phase 1 metabolism): (QH*CL intrinsic)/(QH+CL intrinsic). Fmax [in %]: maximum bioavailability after oral administration of the test substance: (1-CL blood-well stirred/QH)*100.

[2] = tested on: uterus growth in rats with simultaneous administration of oestradiol benzoate (EB); assay: uterus growth test in infant rats, p.o. (test for antioestrogen action); assay type: in vivo, rat; conditions: inhibition of uterus growth relative to EB control; infant female rats; 0.5 μg EB/0.1 ml s.c. plus test compound p.o. in the range of 0.03 mg/kg body weight, once daily for three days
Protocol: To examine the efficacy of the compounds according to the invention, in vivo tests with infant rats were carried out. To this end, the growth of the uterus with peroral administration (p.o.) of the pharmaceutical was examined (test for antioestrogen action).
The principle of this method is to investigate the effect of an administration of compounds having antioestrogen action with simultaneous administration of oestrogens. In rodents, the administration of oestrogens results in an increased weight of the uterus (both by proliferation and by hydropexia). This growth can be inhibited in a dosage-related manner by simultaneous administration of compounds with antioestrogen action.
For the tests, infant female rats having a weight of 35-45 g were examined at the start of the experiment. Five to six animals per dose were tested. For the p.o. administration, the substances were dissolved in one part of ethanol (E) and made up with nine parts of peanut oil (PO). For acclimatization, the young rats just dropped by the mothers were delivered one day before the start of the treatment and immediately supplied with food—right in the cage. For three days, the animals were then treated in combination with 0.5 μg of oestradiol benzoate (EB) once per day. EB was always administrated subcutaneously (s.c.), whereas the test substance was administered p.o. 24 hours after the last administration, the animals were weighed and killed, and the uteri were removed. The moist weights (less contents) of the prepared uteri were determined. The following control studies were carried out: for a negative control, 0.2 ml of an E/PO mixture was administered per animal and day. […]
For each group, the means with standard deviation (X±SD) and the significance of the differences to the control group (EB) of the relative organ weights (mg/100 g of body weight) were determined in the Dunnett test (p<0.05). The inhibition (in %) relative to the EB control was determined using a calculation programme. The relative efficacy of the test substances was calculated by covariance and regression analysis.

Row | Compound | Fmax (micros.) [%] [1] [%] | Inhibition [%] [2]
1 | CN(CCCCCCCC(F)(F)C(F)(F)F)CCCCCC1Cc2cc(O)ccc2C2[C@@H]1C1CC[C@@](C)(O)[C@@]1(C)C[C@@H]2F (stereo partly drawn) [Example 1, [5-(11β-Fluoro-3,17α-dihydroxy-17β-methyloestra-1,3,5(10)-trien-7α-yl)pentyl](methyl)(8,8,9,9,9-pentafluorononyl)amine] | 39 | 42-59%
2 | C[C@]12C[C@H](F)C3c4ccc(O)cc4CC(CCCCCN4CCC[C@H]4CCCCCCC(F)(F)C(F)(F)F)[C@H]3C1CC[C@@]2(C)O (stereo partly drawn) [Example 2, 11β-Fluoro-17β-methyl-7α-[5-[(2R)-2-(7,7,8,8,8-pentafluorooctyl)-1-pyrrolidinyl]pentyl]-oestra-1,3,5(10)-triene-3,17α-diol] | 36 | 70%
3 | C[C@]12C[C@H](F)C3c4ccc(O)cc4CC(CCCCCN4CCC[C@H]4CCCCCC(F)(F)C(F)(F)F)[C@H]3C1CC[C@@]2(C)O (stereo partly drawn) [Example 3, 11β-Fluoro-17β-methyl-7α-[5-[(2R)-2-(6,6,7,7,7-pentafluoroheptyl)-1-pyrrolidinyl]pentyl]oestra-1,3,5(10)-triene-3,17α-diol] | 40 | 40%
4 | CN(CCCCCCCC(F)(F)C(F)(F)F)CCCCCC1Cc2c(ccc(O)c2Cl)C2[C@@H]1C1CC[C@@](C)(O)[C@@]1(C)C[C@@H]2F (stereo partly drawn) [Example 4, 4-Chloro-11β-fluoro-17β-methyl-7α-[5-[methyl(8,8,9,9,9-pentafluorononyl)amino]pentyl]-oestra-1,3,5(10)-triene-3,17α-diol] | 39 | 
5 | CN(CCCCCCCC(F)(F)C(F)(F)F)CCCCCC1Cc2c(ccc(O)c2Br)C2[C@@H]1C1CC[C@@](C)(O)[C@@]1(C)C[C@@H]2F (stereo partly drawn) [Example 5, 4-Bromo-11β-fluoro-17β-methyl-7α-[5-[methyl(8,8,9,9,9-pentafluorononyl)amino]pentyl]oestra-1,3,5(10)-triene-3,17α-diol] | 55 | 
6 | C[C@]12C[C@H](F)C3c4ccc(O)c(Br)c4CC(CCCCCN4CCC[C@H]4CCCCCCC(F)(F)C(F)(F)F)[C@H]3C1CC[C@@]2(C)O (stereo partly drawn) [Example 6, 4-Bromo-11β-fluoro-17β-methyl-7α-[5-[(2R)-2-(7,7,8,8,8-pentafluorooctyl)-1-pyrrolidinyl]pentyl]oestra-1,3,5(10)-triene-3,17α-diol] | 34 | 
7 | C[C@]12C[C@H](F)C3c4ccc(O)c(Cl)c4CC(CCCCCN4CCC[C@H]4CCCCCCC(F)(F)C(F)(F)F)[C@H]3C1CC[C@@]2(C)O (stereo partly drawn) [Example 7, 4-Chloro-11β-fluoro-17β-methyl-7α-[5-[(2R)-2-(7,7,8,8,8-pentafluorooctyl)-1-pyrrolidinyl]pentyl]oestra-1,3,5(10)-triene-3,17α-diol] | 47 | 
8 | C[C@]12C[C@H](F)C3c4ccc(O)c(Br)c4CC(CCCCCN4CCC[C@H]4CCCCCC(F)(F)C(F)(F)F)[C@H]3C1CC[C@@]2(C)O (stereo partly drawn) [Example 8, 4-Bromo-11β-fluoro-17β-methyl-7α-[5-[(2R)-2-(6,6,7,7,7-pentafluoroheptyl)-1-pyrrolidinyl]pentyl]oestra-1,3,5(10)-triene-3,17α-diol] | 48 | 
9 | C[C@]12C[C@H](F)C3c4ccc(O)c(Cl)c4CC(CCCCCN4CCC[C@H]4CCCCCC(F)(F)C(F)(F)F)[C@H]3C1CC[C@@]2(C)O (stereo partly drawn) [Example 9, 4-Chloro-11β-fluoro-17β-methyl-7α-[5-[(2R)-2-(6,6,7,7,7-pentafluoroheptyl)-1-pyrrolidinyl]pentyl]oestra-1,3,5(10)-triene-3,17α-diol] | 42 | 
10 | C[C@]12C[C@H](F)C3c4cc(Cl)c(O)c(Cl)c4CC(CCCCCN4CCC[C@H]4CCCCCCC(F)(F)C(F)(F)F)[C@H]3C1CC[C@@]2(C)O (stereo partly drawn) [Example 10, 2,4-Dichloro-11β-fluoro-17β-methyl-7α-[5-[(2R)-2-(7,7,8,8,8-pentafluorooctyl)-1-pyrrolidinyl]pentyl]oestra-1,3,5(10)-triene-3,17α-diol] | 34 | 
11 | CN(CCCCCCCC(F)(F)C(F)(F)F)CCCCCC1Cc2cc(O)ccc2C2[C@@H]1C1CC[C@](C)(O)[C@@]1(C)C[C@@H]2F (stereo partly drawn) [Example C1, 11β-Fluoro-17α-methyl-7α-[5-[methyl(8,8,9,9,9-pentafluorononyl)amino]pentyl]oestra-1,3,5(10)-triene-3,17β-diol, reference compound] | 9 | 
12 | C[C@]1(O)CCC2[C@@H]3C(CCCCCN4CCC[C@H]4CCCCCCC(F)(F)C(F)(F)F)Cc4cc(O)ccc4C3[C@@H](F)C[C@@]21C (stereo partly drawn) [Example C2, 11β-Fluoro-17α-methyl-7α-[5-[(2R)-2-(7,7,8,8,8-pentafluorooctyl)-1-pyrrolidinyl]pentyl]-oestra-1,3,5(10)-triene-3,17β-diol, reference compound] | 9 | 
13 | C[C@]1(O)CCC2[C@@H]3C(CCCCCN4CCC[C@H]4CCCCCC(F)(F)C(F)(F)F)Cc4cc(O)ccc4C3[C@@H](F)C[C@@]21C (stereo partly drawn) [Example C3, 11β-Fluoro-17α-methyl-7α-[5-[(2R)-2-(6,6,7,7,7-pentafluoroheptyl)-1-pyrrolidinyl]pentyl]oestra-1,3,5(10)-triene-3,17β-diol, reference compound] | 8 | 
